Test results published in PMC8801607, “New Chitosan Polymer Scaffold Schiff Bases as Potential Cytotoxic Activity: Synthesis, Molecular Docking, and Physiochemical Characterization” (Frontiers in Chemistry, 2022).

System: MCF-7 cancer cell line
Assay: cells
Method: MCF-7 breast cell line was employed in this study. The MCF-7 cell line was pre-incubated on a micro titer plate in this technique. Each test’s results are expressed as a percentage of the treated cells’ growth relative to the untreated control cells. […] 0.1 ml of the cell suspension (containing 5 × 10^6 cells/100 µL)and 0.1 ml of the test solution (6.25–100 µg in 1% DMSO such that the final concentration of DMSO in media was less than 1%) were added to the […] and incubated at 37°C for 72 h in a 5 percent CO2 incubator. The control wells included 1 percent DMSO and cell suspension, while the blank contained simply cell suspension. After 72 h, 20 µL of MTT were added and left in the CO2 incubator for 2 h before adding 100 µL of propanol. To protect the plate from light, it was wrapped in aluminum foil. The […] were then shaken for 10–25 min in a rotary shaker. The […] were processed on an ELISA reader for absorbance at 562 nm after 10–20 min.

COc1cccc2c1C(=O)c1c(O)c3c(c(O)c1C2=O)C[C@@](O)(C(=O)CO)C[C@@H]3O[C@H]1C[C@H](N)[C@H](O)[C@H](C)O1 [Doxorubicin]
GI50 (Homo sapiens, MCF7): 40 nM | TGI (total growth of inhibition) (MCF-7 cell line, MTT assay, mean ± SD of three separate experiments): 250 ± 230 nM
